{"source": "patent EP0403242A1", "about": "“New L-683,590 microbial transformation product” (Merck & Co., Inc., priority 1989, dated 1990)", "key": {"mouse T lymphocytes": {"tested_on": "mouse T lymphocytes", "assay": "T-cell proliferation assay (ionomycin plus PMA induced T-cell stimulation, tritiated thymidine uptake)", "type": "cell-based, C57B1/6 mice", "protocol": "The principle of this assay is to measure the proliferation of mouse T lymphocytes stimulated with the combination of ionomycin plus PMA. […] Cells were pelleted by centrifugation at 1500 rpm for 8 minutes. Contaminating red cells were removed by treating the pellet with ammonium chloride lysing buffer (GIBCO) for 2 minutes at 4°C. Cold medium was added and cells were again centrifuged at 1500 rpm for 8 minutes. T lymphocytes were then isolated by separation of the cell suspension on nylon wool columns as follows: Nylon wool columns were prepared by packing approximately 4 grams of washed and dried nylon wool into 20 ml plastic syringes. The columns were sterilized by autoclaving at 250°F for 30 minutes. Nylon wool columns were wetted with warm (37°C) culture medium and rinsed with the same medium. Washed spleen cells resuspended in warm medium were slowly applied to the nylon wool. The columns were then incubated in an upright position at 37°C for 1 hour. Non-adherent T lymphocytes were eluted from the columns with warm culture medium and the cell suspensions were spun as above. […] The cell suspension was immediately distributed into 96 well flat-bottom microculture plates (Costar) at 200 μl/well. […] The proliferation of T lymphocytes was assessed by measurement of tritiated thymidine incorporation. After 44 hours of culturing, the cells were pulse-labelled with 2 μCi/well of tritiated thymidine (NEN, Cambridge, MA). After another 4 hours of incubation, cultures were harvested on glass fiber filters using a multiple sample harvester. Radioactivity of filter discs corresponding to individual wells was measured by standard liquid scintillation counting methods (Betacounter). […]"}, "[1]": {"assay": "Physical characteristics of the fermentation product", "type": "physicochemical", "conditions": "qualitative, solvent methanol", "description": "White amorphous powder • 2. […] Molecular weight of 763, as determined by electron impact mass spectroscopy and is consistent with the assigned molecular structure in Figure 1."}}, "note": "Where “and” joins values, the source holds several entries; their conditions need not be identical. Equal values may be shown once. Read-outs that look alike come from different tables or passages of the source.", "data": [{"compound": "CC[C@@H]1/C=C(\\C)C[C@H](C)C[C@H](O)[C@H]2O[C@@](O)(C(=O)C(=O)N3CCCC[C@H]3C(=O)O[C@H](/C(C)=C/[C@@H]3CC[C@@H](O)[C@H](O)C3)[C@H](C)[C@@H](O)CC1=O)[C@H](C)C[C@@H]2OC", "note": "[L-686,292]", "values": [{"measurement": "inhibition at 0.031 µg/mL", "setting": "mouse T lymphocytes; Mus musculus, T-lymphocyte, 48 h, Table 1, L-686,292 only, 31 ng/ml, harvest at 48 hours", "value": 0, "unit": "%"}, {"measurement": "inhibition at 0.063 µg/mL", "setting": "mouse T lymphocytes; Mus musculus, T-lymphocyte, 48 h, Table 1, L-686,292 only, 63 ng/ml, harvest at 48 hours", "value": 0, "unit": "%"}, {"measurement": "inhibition at 0.125 µg/mL", "setting": "mouse T lymphocytes; Mus musculus, T-lymphocyte, 48 h, Table 1, L-686,292 only, 125 ng/ml, harvest at 48 hours", "value": 0, "unit": "%"}, {"measurement": "inhibition at 0.25 µg/mL", "setting": "mouse T lymphocytes; Mus musculus, T-lymphocyte, 48 h, Table 1, L-686,292 only, 250 ng/ml, harvest at 48 hours", "value": 0, "unit": "%"}, {"measurement": "inhibition at 0.5 µg/mL", "setting": "mouse T lymphocytes; Mus musculus, T-lymphocyte, 48 h, Table 1, L-686,292 only, 500 ng/ml, harvest at 48 hours", "value": 0, "unit": "%"}, {"measurement": "inhibition at 1 µg/mL", "setting": "mouse T lymphocytes; Mus musculus, T-lymphocyte, 48 h, Table 1, L-686,292 only, 1000 ng/ml, harvest at 48 hours", "value": 0, "unit": "%"}, {"measurement": "inhibition at 0.001 µg/mL", "setting": "mouse T lymphocytes; Mus musculus, T-lymphocyte, Table 1, L-686,292 31 ng/ml & L-679,934 (1 ng/ml), read-out: % Inhibition", "value": 99, "unit": "%"}, {"measurement": "inhibition at 0.001 µg/mL", "setting": "mouse T lymphocytes; Mus musculus, T-lymphocyte, Table 1, L-686,292 63 ng/ml & L-679,934 (1 ng/ml), read-out: % Inhibition", "value": 99, "unit": "%"}, {"measurement": "inhibition at 0.001 µg/mL", "setting": "mouse T lymphocytes; Mus musculus, T-lymphocyte, Table 1, L-686,292 125 ng/ml & L-679,934 (1 ng/ml), read-out: % Inhibition", "value": 96, "unit": "%"}, {"measurement": "inhibition at 0.001 µg/mL", "setting": "mouse T lymphocytes; Mus musculus, T-lymphocyte, Table 1, L-686,292 250 ng/ml & L-679,934 (1 ng/ml), read-out: % Inhibition", "value": 65, "unit": "%"}, {"measurement": "inhibition at 0.001 µg/mL", "setting": "mouse T lymphocytes; Mus musculus, T-lymphocyte, Table 1, L-686,292 500 ng/ml & L-679,934 (1 ng/ml), read-out: % Inhibition", "value": 3, "unit": "%"}, {"measurement": "inhibition at 0.001 µg/mL", "setting": "mouse T lymphocytes; Mus musculus, T-lymphocyte, Table 1, L-686,292 1000 ng/ml & L-679,934 (1 ng/ml), read-out: % Inhibition", "value": 0, "unit": "%"}, {"measurement": "inhibition at 0.001 µg/mL", "setting": "mouse T lymphocytes; Mus musculus, T-lymphocyte, Table 2, L-686,292 31.3 ng/ml + inhibitor L-679,934 (1 ng/ml), read-out: % Inhibition", "value": 93.4, "unit": "%"}, {"measurement": "inhibition at 0.001 µg/mL", "setting": "mouse T lymphocytes; Mus musculus, T-lymphocyte, Table 2, L-686,292 62.5 ng/ml + inhibitor L-679,934 (1 ng/ml), read-out: % Inhibition", "value": 65.7, "unit": "%"}, {"measurement": "inhibition at 0.001 µg/mL", "setting": "mouse T lymphocytes; Mus musculus, T-lymphocyte, Table 2, L-686,292 125 ng/ml + inhibitor L-679,934 (1 ng/ml), read-out: % Inhibition", "value": 0, "unit": "%"}, {"measurement": "inhibition at 0.001 µg/mL", "setting": "mouse T lymphocytes; Mus musculus, T-lymphocyte, Table 2, L-686,292 1000 ng/ml + inhibitor L-679,934 (1 ng/ml), read-out: % Inhibition", "value": 4.7, "unit": "%"}, {"measurement": "IC50", "setting": "mouse T lymphocytes; Mus musculus, T-lymphocyte, reversal of inhibition by L-679,934 (1 ng/ml), read-out: IC₅₀ of reversal", "value": "0.25 µg/mL and 328 nM"}, {"measurement": "IC50", "setting": "mouse T lymphocytes; Mus musculus, T-lymphocyte, reversal of inhibition by L-679,934, 'generally in the range', read-out: IC₅₀ of reversal, general range", "value": "100 to 400", "unit": "nM"}, {"measurement": "L-679,934 antagonist activity", "setting": "mouse T lymphocytes; qualitative statement", "value": "exhibits reversal of L-679,934 mediated inhibition of T-cell activation"}, {"measurement": "Solubility", "setting": "[1]", "value": "Solubility in methanol"}]}, {"compound": "C=CC[C@@H]1/C=C(\\C)C[C@H](C)C[C@H](OC)[C@H]2O[C@@](O)(C(=O)C(=O)N3CCCC[C@H]3C(=O)O[C@H](/C(C)=C/[C@@H]3CC[C@@H](O)[C@H](OC)C3)[C@H](C)[C@@H](O)CC1=O)[C@H](C)C[C@@H]2OC", "note": "[L-679,934, reference compound]", "values": [{"measurement": "inhibition at 0.001 µg/mL", "setting": "mouse T lymphocytes; Mus musculus, T-lymphocyte, Table 1, L-679,934 1 ng/ml alone (0 ng/ml L-686,292)", "value": 99, "unit": "%"}, {"measurement": "inhibition at 0.001 µg/mL", "setting": "mouse T lymphocytes; Mus musculus, T-lymphocyte, Table 2, L-679,934 (1 ng/ml) alone (0 ng/ml L-686,292)", "value": 97.1, "unit": "%"}, {"measurement": "IC50", "setting": "mouse T lymphocytes; Mus musculus, T-lymphocyte, read-out: IC₅₀ for L-679,934-mediated inhibition", "value": "0.00032 µg/mL and 0.4 nM"}]}]}
